According to PMC3293837, “Biophysical Property and Broad Anti-HIV Activity of Albuvirtide, a 3-Maleimimidopropionic Acid-Modified Peptide Fusion Inhibitor” (PLoS ONE, 2012):

Assays:
Format in all cases: cell-based, HIV-1
[1] = tested on: 92RW020 pseudovirus (subtype A); details: 92RW020, subtype A, R5; TZM-bl, 48 h; triplicate, mean ± SD of three independent experiments
Excerpt: (§1) A panel of plasmids encoding HIV-1 Envs were obtained through the AIDS Research and Reference Reagent Program (ARRRP), Division of AIDS, NIAID, NIH, including subtype A Env clones pSVIII-92RW020.5 and 92UG037.8 from Dr. B.H. Hahn; subtype B Env clones SC422661.8, TRO.11 and AC10.0.29 from Drs. D. Montefiori, F. Gao and M. Li, pRHPA4259.7 and pREJO4541.67 from Drs. B.H. Hahn and J.F. Salazar-Gonzalez, and pCAAN5342.A2 from Drs. B.H. Hahn and D.L. Kothe; subtype C Env clones Du172.17 and Du422.1 from Drs. D. Montefiori, F. Gao, S. Abdool Karim and G. Ramjee, CAP45.2.00.G3 from Drs. L. Morris, K. Mlisana and D. Montefiori, ZM197M.PB7 from Drs. B.H. Hahn, Y. Li and J.F. Salazar-Gonzalez, ZM109F.PB4 from Drs. E. Hunter and C. Derdeyn. Six CRF07_BC Env clones (CH064.20, CH070.1, CH091.9, CH110.2, CH119.10 and CH120.6) were generous gifts by Dr. Y. Shao in the Chinese Center for Disease Control and Prevention, Beijing, China. A panel of Env clones derived from subtype B′ (B01, B02, B04, and 43-22), CRF01_AE (SHX335.24, YN192.31, AE01, AE03, GX2010.36, GX11.13, GX2010.36H, BJ5.11), and CRF07_BC (BC02, BC03, BC05, BC07, BC14, SC19-15, BJ22-5, YN148R-9, XJ50-6, HB5-3) were kindly provided by Dr. Y. Wang from the National Institute for the Control of Pharmaceutical and Biological Products, Beijing, China.

[2] = tested on: TRO.11 pseudovirus (subtype B); details: TRO.11, subtype B, R5; TZM-bl, 48 h; triplicate, mean ± SD of three independent experiments
Excerpt: as §1

[3] = tested on: CAAN5342 pseudovirus (subtype B); details: R5, TZM-bl, 48 h, triplicate, mean ± SD of three independent experiments
Excerpt: as §1

[4] = tested on: GX2010.36 pseudovirus (CRF01_AE); details: GX2010.36, CRF01_AE, R5; TZM-bl, 48 h; triplicate, mean ± SD of at least three independent experiments
Excerpt: as §1

[5] = tested on: SHX335.24 pseudovirus (CRF01_AE); details: SHX335.24, CRF01_AE, R5; TZM-bl, 48 h; triplicate, mean ± SD of at least three independent experiments
Excerpt: as §1

[6] = tested on: SC422661.8 pseudovirus (subtype B); details: SC422661.8, subtype B, R5; TZM-bl, 48 h; triplicate, mean ± SD of three independent experiments
Excerpt: as §1

[7] = tested on: AC10.0.29 pseudovirus (subtype B); details: AC10.0.29, subtype B, R5; TZM-bl, 48 h; triplicate, mean ± SD of three independent experiments
Excerpt: as §1

[8] = tested on: B02 pseudovirus (subtype B′); details: R5, TZM-bl, 48 h, triplicate, mean ± SD of at least three independent experiments
Excerpt: as §1

[9] = tested on: CH070 pseudovirus (CRF07_BC); details: R5, TZM-bl, 48 h, triplicate, mean ± SD of at least three independent experiments
Excerpt: as §1

[10] = tested on: SC19-15 pseudovirus (CRF07_BC); details: SC19-15, CRF07_BC, R5; TZM-bl, 48 h; triplicate, mean ± SD of at least three independent experiments
Excerpt: as §1

[11] = tested on: CAP45.2.00.G3 pseudovirus (subtype C); details: CAP45.2.00.G3, subtype C, R5; TZM-bl, 48 h; triplicate, mean ± SD of three independent experiments
Excerpt: as §1

[12] = tested on: BJ22-5 pseudovirus (CRF07_BC); details: BJ22-5, CRF07_BC, R5; TZM-bl, 48 h; triplicate, mean ± SD of at least three independent experiments
Excerpt: as §1

[13] = tested on: B04 pseudovirus (subtype B′); details: R5, TZM-bl, 48 h, triplicate, mean ± SD of at least three independent experiments
Excerpt: as §1

[14] = tested on: BC02 pseudovirus (CRF07_BC); details: R5, TZM-bl, 48 h, triplicate, mean ± SD of at least three independent experiments
Excerpt: as §1

[15] = tested on: 43-22 pseudovirus (subtype B′); details: 43-22, B′, R5; TZM-bl, 48 h; triplicate, mean ± SD of at least three independent experiments
Excerpt: as §1

[16] = tested on: XJ50-6 pseudovirus (CRF07_BC); details: XJ50-6, CRF07_BC, R5; TZM-bl, 48 h; triplicate, mean ± SD of at least three independent experiments
Excerpt: as §1

[17] = tested on: 92UG037.8 pseudovirus (subtype A); details: 92UG037.8, subtype A, R5; TZM-bl, 48 h; triplicate, mean ± SD of three independent experiments
Excerpt: as §1

[18] = tested on: CH091 pseudovirus (CRF07_BC); details: R5, TZM-bl, 48 h, triplicate, mean ± SD of at least three independent experiments
Excerpt: as §1

[19] = tested on: GX11.13 pseudovirus (CRF01_AE); details: GX11.13, CRF01_AE, R5; TZM-bl, 48 h; triplicate, mean ± SD of at least three independent experiments
Excerpt: as §1

[20] = tested on: CH119 pseudovirus (CRF07_BC); details: R5, TZM-bl, 48 h, triplicate, mean ± SD of at least three independent experiments
Excerpt: as §1

[21] = tested on: AE03 pseudovirus (CRF01_AE); details: R5, TZM-bl, 48 h, triplicate, mean ± SD of at least three independent experiments
Excerpt: as §1

## enfuvirtide
[1]
  IC50: 0.0254 ± 0.00981 µM
[2]
  IC50: 0.334 ± 0.0489 µM
[3]
  IC50: 0.723 ± 0.0535 µM
[4]
  IC50: 0.0181 ± 0.00375 µM
[5]
  IC50: 0.051 ± 0.00735 µM
[6]
  IC50: 0.0282 ± 0.00592 µM
[7]
  IC50: 0.0101 ± 0.00045 µM
[8]
  IC50: 0.00859 ± 0.0008 µM
[9]
  IC50: 0.136 ± 0.0364 µM
[10]
  IC50: 0.00761 ± 0.00097 µM
[11]
  IC50: 0.0962 ± 0.00691 µM
[12]
  IC50: 0.0258 ± 0.00417 µM
[13]
  IC50: 0.0078 ± 0.00043 µM
[14]
  IC50: 0.0026 ± 0.00048 µM
[15]
  IC50: 0.0121 ± 0.00324 µM
[16]
  IC50: 0.0811 ± 0.0176 µM
[17]
  IC50: 0.00355 ± 0.00095 µM
[18]
  IC50: 0.0659 ± 0.0143 µM
[19]
  IC50: 0.0066 ± 0.00032 µM
[20]
  IC50: 0.0221 ± 0.00274 µM
[21]
  IC50: 0.0078 ± 0.00166 µM
